Common to all, as to format: physicochemical
A short description of data set [1]: Storage stability of colored resist solution (precipitation after one month at room temperature). More on the design: key: A: No precipitation was observed; B: Slight precipitation was observed; C: Precipitation was observed. The note with it: negative-working colored resist solution, visual precipitation. The source says: 9.4 g of the resist solution obtained in section 1 above and 0.35 g of the exemplary compound Ia-12 synthesized above (a compound represented by Formula (4): dipyrromethene complex compound) were mixed and dissolved, whereby a colored resist solution (a negative-working ultraviolet-sensitive colored curable composition) was obtained.
The colored resist solution was stored for one month at room temperature, and then degree of precipitation was visually observed. The storage stability was evaluated according to the following criteria.
A: No precipitation was observed
B: Slight precipitation was observed
C: Precipitation was observed

Data set [2] is described as follows: Light-fastness of coating film (color difference ΔEab before and after xenon lamp irradiation). The note with it: xenon lamp 20,000 luxes for 10 hours (200,000 lux·h). The method, then:
A glass substrate having undercoat layer formed by applying the colored resin composition obtained in section 3 above was irradiated with a xenon lamp at an intensity of 20,000 luxes for 10 hours (equivalent to 200,000 lux·h), and the color difference ΔEab between before and after the irradiation was determined. The light-fastness was evaluated according to the following criteria. A smaller ΔEab value indicates better light-fastness.
(§1) A: ΔEab value was less than 6
(§2) B: ΔEab value was from 6 to 10
(§3) C: ΔEab value was more than 10

Data set [3] can be described thus: Absorption spectrum in ethyl acetate solution (spectrophotometer UV-2400PC). Here is the method:
In consideration of film thickness, the molar absorption coefficient of the specific metal complex compounds-1, -2, -3 and -4 of the invention is preferably as high as possible, and 60,000 or higher is preferable. The maximum absorption wavelength (λmax) thereof is preferably from 520 nm to 580 nm, and more preferably from 530 nm to 570 nm, in order to improve color purity. The maximum absorption wavelength and the molar absorption coefficient are determined by using a spectrophotometer UV-2400PC (manufactured by Shimadzu Corporation).
The molar absorption coefficient (ε) of each of the obtained compounds was measured in an ethyl acetate solution using a spectrophotometer (trade name: UV-2400PC; manufactured by Shimadzu Corporation). The absorbance (Abs) at 450 nm was evaluated by normalizing the absorbance at a maximum absorption wavelength (λmax) to 1.0. […] The measurement results of the absorbance (Abs value), maximum absorption wavelength (λmax), and molar absorption coefficient (ε) are shown in Table 1.
By the method similar to the reaction scheme in Synthesis Example 1 above, the exemplary compounds (dipyrromethene metal complex compounds or tautomers thereof) shown in Table 1 were synthesized. The identification of the compounds and the measurement of the maximum absorption wavelength (λmax) and the molar absorption coefficient (ε) of the compounds were performed similarly to Synthesis Example 1 above.

Data set [4] can be described thus: Transmittance at 450 nm of the color filter. The note with it: negative-working colored resist, 1.0 μm film; transmittance at λmax normalized to 2%. Here is the method: The colored resist solution obtained in section 3 above was applied to an undercoat layer side of the glass substrate having an undercoat layer obtained in section 2 above by a spin coater such that a film thickness was 1.0 μm. Subsequently, the film was pre-baked at 100° C. for 120 sec, whereby a monochromatic color filter was obtained.
The transmission spectrum of the color filter obtained above was measured, and the transmittance at 450 nm was evaluated according to the following criteria. The transmittance of the color filter at 450 nm was evaluated by correcting (normalizing) the transmittance at the maximum absorption wavelength of the colorant included in the color filter to 2%. A larger transmittance indicates greater transmission of blue light, which indicates favorable magenta or violet color that can be used in a blue filter.
A: Transmittance at 450 nm was 90% or more
B: Transmittance at 450 nm was 80% or more but not more than 90%
C: Transmittance at 450 nm was not more than 80%

Data set [5] can be described thus: Heat resistance of coating film (color difference ΔEab before and after heating). Particulars: 100° C. for 1 hour on hot plate. Here is the method: A glass substrate having undercoat layer formed by applying the colored resin composition obtained in section 3 above was heat-treated at 100° C. for 1 hour using a hot plate, and the color difference (ΔEab) between before and after the heating was determined by using a […] MCPD-1000 (trade name, manufactured by Otsuka Electronics Co., Ltd.). The heat resistance was evaluated according to the following criteria. A smaller AEab value indicates better heat resistance.
as §1, §2, §3

As for `CC1CC(C(C)(C)C)C(OC(=O)C2=C(c3ccccc3)C3=Cc4c(-c5ccccc5)c(C(=O)OC5C(C(C)(C)C)CC(C)CC5C(C)(C)C)c(NC(=O)c5cc(F)c(F)c(F)c5)[n]4[Zn-]([OH])[N+]3=C2NC(=O)c2cc(F)c(F)c(F)c2)C(C(C)(C)C)C1` (stereo not shown) [IIb-32], the Storage stability entry in data set [1] was “A”. Also, the Light-fastness result in data set [2] is recorded as “A (ΔEab value was less than 6)”. In data set [3], the “maximum absorption wavelength (λmax)” value was 559 nm, the “molar absorption coefficient (ε)” value is recorded as 91,400 and the “Abs value at 450 nm when normalized to Abs = 1.0 at λmax” value (from here on “Abs value at 450 nm when normalized”) is 0.0143. Besides, the “Transmittance at 450 nm” value in data set [4] is listed as “A (Transmittance at 450 nm was 90% or more)”. The Heat resistance result in data set [5] is on record as “A (ΔEab value was less than 6)”.
For the compound `CC1CC(C(C)(C)C)C(OC(=O)C2=C(c3ccccc3)C3=Cc4c(-c5ccccc5)c(C(=O)OC5C(C(C)(C)C)CC(C)CC5C(C)(C)C)c(NC(=O)c5cc(F)ccc5NS(C)(=O)=O)[n]4[Zn-]([OH])[N+]3=C2NC(=O)c2cc(F)ccc2NS(C)(=O)=O)C(C(C)(C)C)C1` (stereo not shown) [IIb-20], the Storage stability result in data set [1] is “A”. The Light-fastness entry in data set [2] is “A (ΔEab value was less than 6)”. Moreover, in data set [3], the “maximum absorption wavelength (λmax)” value came to 565 nm, the “molar absorption coefficient (ε)” value is on record as 121,000 and the “Abs value at 450 nm when normalized” value is 0.082. In addition, in data set [4], the “Transmittance at 450 nm” value is on record as “A (Transmittance at 450 nm was 90% or more)”. Further, the Heat resistance result in data set [5] is on record as “A (ΔEab value was less than 6)”.
As for `CC1=C(C(=O)OC2C(C(C)(C)C)CC(C)CC2C(C)(C)C)C(NC(=O)c2ccc(F)c([N+](=O)[O-])c2)=[N+]2C1=Cc1c(C)c(C(=O)OC3C(C(C)(C)C)CC(C)CC3C(C)(C)C)c(NC(=O)c3ccc(F)c([N+](=O)[O-])c3)[n]1[Zn-]2[OH]` (stereo not shown) [IIa-25], the Storage stability result in data set [1] is recorded as “B”. In data set [2], the Light-fastness result was “A (ΔEab value was less than 6)”. In data set [3], the “maximum absorption wavelength (λmax)” value is given as 555 nm, the “molar absorption coefficient (ε)” value was 126,900 and the “Abs value at 450 nm when normalized” value worked out at 0.0081. Moreover, the “Transmittance at 450 nm” value in data set [4] is “A (Transmittance at 450 nm was 90% or more)”. Besides, the Heat resistance entry in data set [5] is given as “A (ΔEab value was less than 6)”.
Take `CC1=C(C(=O)OC2C(C(C)(C)C)CC(C)CC2C(C)(C)C)C(NC(=O)c2c(F)c(F)c(O)c(F)c2F)=[N+]2C1=Cc1c(C)c(C(=O)OC3C(C(C)(C)C)CC(C)CC3C(C)(C)C)c(NC(=O)c3c(F)c(F)c(O)c(F)c3F)[n]1[Zn-]2[OH]` (stereo not shown) [IIa-39]: the Storage stability result in data set [1] is listed as “A”. The Light-fastness result in data set [2] is reported as “A (ΔEab value was less than 6)”. For the same compound, in data set [3], the “maximum absorption wavelength (λmax)” value stood at 553 nm, the “molar absorption coefficient (ε)” value is 109,400 and the “Abs value at 450 nm when normalized” value was 0.0119. The “Transmittance at 450 nm” value in data set [4] is reported as “A (Transmittance at 450 nm was 90% or more)”. Moreover, the Heat resistance entry in data set [5] is “A (ΔEab value was less than 6)”.
For `CC1CC(C(C)(C)C)C(OC(=O)C2=C(c3ccccc3)C3=Cc4c(-c5ccccc5)c(C(=O)OC5C(C(C)(C)C)CC(C)CC5C(C)(C)C)c(NC(=O)c5cccc(C(F)(F)F)c5)[n]4[Zn-]([OH])[N+]3=C2NC(=O)c2cccc(C(F)(F)F)c2)C(C(C)(C)C)C1` (stereo not shown) [IIb-6], the Storage stability result in data set [1] is given as “A”. Moreover, the Light-fastness result in data set [2] is given as “A (ΔEab value was less than 6)”. In data set [3], the “maximum absorption wavelength (λmax)” value is reported as 560 nm, the “molar absorption coefficient (ε)” value is 114,000 and the “Abs value at 450 nm when normalized” value is listed as 0.0079. Besides, the “Transmittance at 450 nm” value in data set [4] was “A (Transmittance at 450 nm was 90% or more)”. The Heat resistance entry in data set [5] was “A (ΔEab value was less than 6)”.
`CC1CC(C(C)(C)C)C(OC(=O)c2c(-c3ccccc3)c3[n](c2NC(=O)c2ccc(F)c(Br)c2)[Zn-]([OH])[N+]2=C(NC(=O)C(C)Sc4cc(C(=O)O)cc(C(=O)O)c4)C(C#N)=C(c4ccccc4)C2=C3)C(C(C)(C)C)C1` (stereo not shown) [Ib-53]: the Storage stability result in data set [1] is “A”. Also, the Light-fastness result in data set [2] is “A (ΔEab value was less than 6)”. Also, in data set [3], the “maximum absorption wavelength (λmax)” value came out at 563 nm, the “molar absorption coefficient (ε)” value was 100,500 and the “Abs value at 450 nm when normalized” value is on record as 0.0082. For the same compound, the “Transmittance at 450 nm” value in data set [4] was “A (Transmittance at 450 nm was 90% or more)”. The Heat resistance result in data set [5] is recorded as “A (ΔEab value was less than 6)”.
`CC1CC(C(C)(C)C)C(OC(=O)C2=C(c3ccccc3)C3=Cc4c(-c5ccccc5)c(C(=O)OC5C(C(C)(C)C)CC(C)CC5C(C)(C)C)c(NC(=O)c5ccc(F)c(F)c5)[n]4[Zn-]([OH])[N+]3=C2NC(=O)c2ccc(F)c(F)c2)C(C(C)(C)C)C1` (stereo not shown) [IIb-13]: the Storage stability result in data set [1] is listed as “A”. Moreover, the Light-fastness result in data set [2] is “A (ΔEab value was less than 6)”. In data set [3], the “maximum absorption wavelength (λmax)” value stood at 560 nm, the “molar absorption coefficient (ε)” value is on record as 106,300 and the “Abs value at 450 nm when normalized” value was 0.0107. Also, the “Transmittance at 450 nm” value in data set [4] is given as “A (Transmittance at 450 nm was 90% or more)”. For the same compound, the Heat resistance entry in data set [5] is on record as “A (ΔEab value was less than 6)”.
As to `CC1=C(C(=O)OC2C(C(C)(C)C)CC(C)CC2C(C)(C)C)C(NC(=O)c2cc(C(F)(F)F)cc(C(F)(F)F)c2)=[N+]2C1=Cc1c(C)c(C(=O)OC3C(C(C)(C)C)CC(C)CC3C(C)(C)C)c(NC(=O)c3cc(C(F)(F)F)cc(C(F)(F)F)c3)[n]1[Zn-]2[OH]` (stereo not shown) [IIa-14], the Storage stability entry in data set [1] is “A”. For the same compound, the Light-fastness result in data set [2] is recorded as “A (ΔEab value was less than 6)”. In data set [3], the “maximum absorption wavelength (λmax)” value is recorded as 551 nm, the “molar absorption coefficient (ε)” value is given as 100,100 and the “Abs value at 450 nm when normalized” value worked out at 0.0114. Besides, the “Transmittance at 450 nm” value in data set [4] is given as “A (Transmittance at 450 nm was 90% or more)”. For the same compound, the Heat resistance result in data set [5] is on record as “A (ΔEab value was less than 6)”.
In the case of `CC1CC(C(C)(C)C)C(OC(=O)c2c(-c3ccccc3)c(C=C3N=C(NC(=O)C(C)(C)C)C(C#N)=C3c3ccccc3)[n]([Zn][OH])c2NC(=O)c2cccc(C(F)(F)F)c2)C(C(C)(C)C)C1` (stereo not shown) [Ib-14], the Storage stability entry in data set [1] is listed as “A”. In data set [2], the Light-fastness result is given as “A (ΔEab value was less than 6)”. In addition, in data set [3], the “maximum absorption wavelength (λmax)” value is on record as 561 nm, the “molar absorption coefficient (ε)” value is listed as 85,200 and the “Abs value at 450 nm when normalized” value is recorded as 0.0105. Also, the “Transmittance at 450 nm” value in data set [4] is listed as “A (Transmittance at 450 nm was 90% or more)”. Also, the Heat resistance result in data set [5] is listed as “A (ΔEab value was less than 6)”.
Turning to `Cc1c(C(=O)OC2C(C(C)(C)C)CC(C)CC2C(C)(C)C)c(NC(=O)c2ccc(F)c(F)c2)[n]2c1C=C1C(c3ccccc3)=C(C#N)C(NC(=O)C(C)Sc3cc(C(=O)O)cc(C(=O)O)c3)=[N+]1[Zn-]2[OH]` (stereo not shown) [Ia-35], the Storage stability result in data set [1] is on record as “A”. In addition, in data set [2], the Light-fastness result was “A (ΔEab value was less than 6)”. Further, in data set [3], the “maximum absorption wavelength (λmax)” value was 559 nm, the “molar absorption coefficient (ε)” value is on record as 90,100 and the “Abs value at 450 nm when normalized” value is listed as 0.0106. For the same compound, the “Transmittance at 450 nm” value in data set [4] is given as “A (Transmittance at 450 nm was 90% or more)”. Also, the Heat resistance result in data set [5] is “A (ΔEab value was less than 6)”.

The values are drawn from patent US8343696B2, “Colored curable composition, fluorine-containing dipyrromethene compound and tautomer thereof, and fluorine-containing dipyrromethene metal complex and tautomer thereof, and color filter using the same and method for producing the color filter” (FUJIFILM Corporation, priority 2008, dated 2013).
